By Ki is commonly meant the dissociation constant of the complex between target and ligand, obtained from inhibition or displacement.

The target in assay [1] is T1, Alpha-2C adrenergic receptor (Homo sapiens, UniProt P18825).
T1 sequence (P18825 whole entry): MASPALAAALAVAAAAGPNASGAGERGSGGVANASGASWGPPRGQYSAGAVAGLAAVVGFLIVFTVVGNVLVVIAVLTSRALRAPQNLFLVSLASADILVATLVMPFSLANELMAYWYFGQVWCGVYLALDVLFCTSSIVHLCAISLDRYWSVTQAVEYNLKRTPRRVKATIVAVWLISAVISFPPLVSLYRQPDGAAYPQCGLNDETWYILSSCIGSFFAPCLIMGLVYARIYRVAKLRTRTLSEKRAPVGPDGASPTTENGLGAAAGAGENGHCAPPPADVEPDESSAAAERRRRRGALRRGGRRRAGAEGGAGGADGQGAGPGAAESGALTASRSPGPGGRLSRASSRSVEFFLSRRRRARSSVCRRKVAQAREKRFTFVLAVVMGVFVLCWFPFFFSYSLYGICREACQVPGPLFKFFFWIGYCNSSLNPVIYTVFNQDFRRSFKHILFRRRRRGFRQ
Nature of the assay: Affinity to human Alpha-2C adrenergic receptor determined by radioligand binding techniques from chinese hamster ovary (CHO) cells. It is filed as cell-based.

Assay [2] has as its target T2, Alpha-1A adrenergic receptor (Homo sapiens, UniProt P35348).
T2 sequence (P35348 whole entry): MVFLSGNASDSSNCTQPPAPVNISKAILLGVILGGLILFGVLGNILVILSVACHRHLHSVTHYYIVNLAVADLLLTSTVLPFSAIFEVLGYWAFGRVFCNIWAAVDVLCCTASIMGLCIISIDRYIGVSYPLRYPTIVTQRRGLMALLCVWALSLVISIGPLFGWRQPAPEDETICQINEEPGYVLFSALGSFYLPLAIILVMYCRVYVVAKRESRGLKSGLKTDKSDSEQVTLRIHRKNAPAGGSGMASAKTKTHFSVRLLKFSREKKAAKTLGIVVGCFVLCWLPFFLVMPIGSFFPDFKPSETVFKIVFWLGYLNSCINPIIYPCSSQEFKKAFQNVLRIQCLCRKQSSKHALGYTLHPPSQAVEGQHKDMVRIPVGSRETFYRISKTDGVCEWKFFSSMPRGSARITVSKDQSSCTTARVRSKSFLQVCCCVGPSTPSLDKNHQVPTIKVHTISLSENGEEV
Nature of the assay: Affinity to Alpha-1 adrenergic receptor determined by radioligand binding techniques from rat-1 fibroblasts membranes.

Assay [3] addresses T3, Alpha-2C adrenergic receptor (Homo sapiens) (UniProt P18825).
T3 sequence (whole entry): T1 sequence (P18825 whole entry)
Nature of the assay: Efficacy as percentage of the maximal effect observed for nonselective agonist UK-14304 in CHO cells expressing human Alpha-2C adrenergic receptor. It is filed as functional, cell-based.

The target of assay [4] is T4, Alpha-1B adrenergic receptor (Homo sapiens, UniProt P35368).
T4 sequence (P35368 whole entry): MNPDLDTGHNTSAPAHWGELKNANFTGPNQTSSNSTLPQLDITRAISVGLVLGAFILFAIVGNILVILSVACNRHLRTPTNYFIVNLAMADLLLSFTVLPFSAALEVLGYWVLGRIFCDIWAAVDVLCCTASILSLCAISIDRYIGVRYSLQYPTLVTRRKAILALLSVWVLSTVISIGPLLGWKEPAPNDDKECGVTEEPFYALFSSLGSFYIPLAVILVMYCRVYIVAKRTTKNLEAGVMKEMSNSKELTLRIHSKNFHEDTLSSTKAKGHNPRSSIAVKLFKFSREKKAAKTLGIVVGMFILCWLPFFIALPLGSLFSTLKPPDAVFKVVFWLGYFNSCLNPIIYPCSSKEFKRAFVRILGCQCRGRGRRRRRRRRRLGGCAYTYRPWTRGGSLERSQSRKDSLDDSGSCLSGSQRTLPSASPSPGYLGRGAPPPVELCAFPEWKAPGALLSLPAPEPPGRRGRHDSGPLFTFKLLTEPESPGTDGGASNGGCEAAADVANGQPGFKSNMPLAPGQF
Nature of the assay: Affinity to human Alpha-1B adrenergic receptor determined by radioligand binding techniques from rat-1 fibroblasts membranes.

Assay [5] addresses T5, Alpha-1D adrenergic receptor (Homo sapiens, UniProt P25100).
T5 sequence (P25100 whole entry): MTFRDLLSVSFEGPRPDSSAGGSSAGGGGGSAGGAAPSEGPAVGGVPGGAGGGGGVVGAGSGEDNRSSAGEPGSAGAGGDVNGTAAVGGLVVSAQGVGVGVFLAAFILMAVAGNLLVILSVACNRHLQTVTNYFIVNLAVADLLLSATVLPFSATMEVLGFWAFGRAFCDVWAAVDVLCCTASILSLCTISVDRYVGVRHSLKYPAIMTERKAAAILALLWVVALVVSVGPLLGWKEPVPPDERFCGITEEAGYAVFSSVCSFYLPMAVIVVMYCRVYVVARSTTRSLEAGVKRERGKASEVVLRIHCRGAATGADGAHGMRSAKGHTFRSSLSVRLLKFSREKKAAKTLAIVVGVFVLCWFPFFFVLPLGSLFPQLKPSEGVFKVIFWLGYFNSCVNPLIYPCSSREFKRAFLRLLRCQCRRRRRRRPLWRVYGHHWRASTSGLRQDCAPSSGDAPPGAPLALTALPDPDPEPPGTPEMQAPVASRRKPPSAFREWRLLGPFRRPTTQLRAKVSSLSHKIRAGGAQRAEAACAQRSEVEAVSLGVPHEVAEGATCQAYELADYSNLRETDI
Nature of the assay: Affinity to human Alpha-1D adrenergic receptor determined by radioligand binding techniques from rat-1 fibroblasts membranes.

The target in assay [6] is T6, Alpha-2B adrenergic receptor (Homo sapiens, UniProt P18089).
T6 sequence (P18089 whole entry): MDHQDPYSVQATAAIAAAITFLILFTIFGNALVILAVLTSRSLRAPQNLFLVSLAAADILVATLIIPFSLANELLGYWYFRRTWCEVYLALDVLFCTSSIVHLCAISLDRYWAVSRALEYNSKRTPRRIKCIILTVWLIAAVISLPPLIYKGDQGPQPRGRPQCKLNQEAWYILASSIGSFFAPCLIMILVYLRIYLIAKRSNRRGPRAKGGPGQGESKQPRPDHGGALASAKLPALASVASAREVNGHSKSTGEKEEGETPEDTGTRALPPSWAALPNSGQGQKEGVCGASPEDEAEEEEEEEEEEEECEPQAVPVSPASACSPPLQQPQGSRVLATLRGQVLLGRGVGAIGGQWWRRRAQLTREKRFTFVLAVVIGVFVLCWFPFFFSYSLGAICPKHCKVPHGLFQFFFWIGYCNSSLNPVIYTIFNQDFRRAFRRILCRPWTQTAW
Nature of the assay: Affinity to human Alpha-2B adrenergic receptor determined by radioligand binding techniques from chinese hamster ovary (CHO) cells. The class given is cell-based.

`CCSc1ccccc1NCC1=NCCN1`: the Ki in assay [1] is 269 nM; in assay [2], 43.7 nM; in assay [4], 75.9 nM; in assay [5], 57.5 nM; in assay [6], 1620 nM. Further, the Max in assay [3] amounted to 101%.

Source of the values: ChEMBL document CHEMBL1135421, “2-(Anilinomethyl)imidazolines as alpha1 adrenergic receptor agonists: the discovery of alpha1a subtype selective 2'-alkylsulfonyl-substituted analogues” (J Med Chem, 2002).
